From patent publication US20220251109A1, “OXAAZAQUINAZOLINE-7(8H)-KETONE COMPOUND, PREPARATION METHOD THEREFOR AND PHARMACEUTICAL APPLICATION THEREOF” (GENFLEET THERAPEUTICS (SHANGHAI) INC., priority 2019, published 2022)
Where two headings read alike, the source gives them in different places.

Experiments:
Format in all cases: cell-based, human
[1] = test system: p-ERK in MIA PaCa2 cells (Kras G12C mutation); test: Cell p-ERK detection experiment (HTRF) in MIA PaCa2 cells; conditions: compound 2 hours
Protocol: MIA PaCa2 was a human pancreatic cancer cell line with Kras G12C mutation, cultured in 10% FBS+2.5% Horse serum DMEM medium. The cells in the logarithmic growth phase were taken, digested with enzyme EDTA, collected, counted and 2.5E4 cells were seeded in a 96-well cell culture plate, cultured overnight. DMSO was used to prepare 1000× compound 3.16-fold gradient concentration stock solution, and medium was used to dilute 200-fold to 5× compound stock solution. On the second day after cell seeding, 5× compound stock solution was added to each cell culture well, the final concentration was 1×, and DMSO content was 0.1%. DMSO was used as an experimental control (control). After the compound was added and cultured for two hours, the remaining medium was removed. 50 ul cell lysis buffer was added to each well, mixed and incubated for 30 minutes, then 16 ul of the mixture was transferred to a 96-well plate with a non-transparent white bottom, and 16 ul cell lysis buffer was added to blank wells. After the completion of the transfer, 4 ul p-ERK HTRF antibody mixture was added to each well, incubated for 4 hours and the fluorescence value was read. The compound inhibition rate IR (%)=(RLU control-RLU compound)/(RLU control-RLU blank)×100% was calculated, Prism 8 four-parameter method was used to fit the compound's gradient dilution concentration and the corresponding cell proliferation inhibition rate, and the IC50 value was calculate.

[2] = test system: A549 cells (Kras G12S mutation); test: Cell proliferation inhibition experiment, 3D model, CellTiter-Glo (A549); conditions: A549, 3D sphere plate, 5 days, 2% FBS
Protocol: (§1) NCI-H358 was a human non-small cell lung cancer cell line with Kras G12C mutation, cultured in 10% FBS RPMI-1640 medium; A549 was a human lung adenocarcinoma cell line with Kras G12S mutation, cultured in 10% FBS F-12K medium. The cells in the logarithmic growth phase was taken, digested with trypsin EDTA, collected and counted, and H358 was adjusted to 1.8E4 cells/ml using 2% FBS RPMI-1640 medium, and A549 was adjusted to 8.9E3 cells/ml using 2% FBS F-12K medium; 800 (45 μl) H358 or 400 (45 μl) A549 cells were seeded in a 384-well sphere plate respectively, cultured overnight to establish a 3D cell model. DMSO was used to prepare 1000× compound 3.16-fold gradient concentration stock solution, and 2% FBS medium was used to dilute 100-fold to 10× compound stock solution. On the second day after cell seeding, 5 μl 10× compound stock solution was added to each cell culture well, the final concentration was 1×, and DMSO content was 0.1%. DMSO was used as the experimental control (control) and 2% FBS medium as the blank control (blank). After the compound and cells were added and cultured for 5 days, 25 μl CellTiter-Glo working solution was added to each well, mixed at 400 rpm and incubated for 30 minutes. After 30 minutes at room temperature, 40 μl of the mixture was transferred to a 384-well plate with a non-transparent white bottom, the luminescence chemiluminescence value was read, and the cells proliferation inhibition rate IR (%)=(RLU control-RLU compound)/(RLU control-RLU blank)×100% was calculated, Prism 6 four-parameter method was used to fit the compound's gradient dilution concentration and the corresponding cell proliferation inhibition rate, and the IC50 value was calculate.

[3] = test system: NCI-H358 cells (Kras G12C mutation); test: Cell proliferation inhibition experiment, 3D model, CellTiter-Glo (NCI-H358); conditions: NCI-H358, 3D sphere plate, 5 days, 2% FBS
Protocol: as §1

[4] = test system: MIA PaCa-2 cells (Kras G12C mutation); test: Cell proliferation inhibition experiment, 3D model, CellTiter-Glo (MIA PaCa-2); conditions: MIA PaCa-2, 3D sphere plate, 5 days, read-out: MIA-PaCa2 IC50
Protocol: MIA PaCa2 was a human pancreatic cancer cell line with Kras G12C mutation, cultured in 10% FBS+2.5% Horse serum DMEM medium; A549 was a human lung adenocarcinoma cell line with Kras G12S mutation, cultured in 10% FBS F-12K medium. The cells in the logarithmic growth phase were taken, digested with enzyme EDTA, collected, counted and 200 MIA PaCa-2 or 400 A549 cells were seeded in a 384-well sphere plate respectively, cultured overnight to establish a 3D cell model. DMSO was used to prepare 1000× compound 3.16-fold gradient concentration stock solution, and medium was used to dilute 100-fold to 10× compound stock solution. On the second day after cell seeding, 10× compound stock solution was added to each cell culture well, the final concentration was 1×, and DMSO content was 0.1%. DMSO was used as an experimental control (control), medium as the blank control (blank). After the compound and cells were added and cultured for 5 days, 30 μl CellTiter-Glo working solution was added to each well, mixed and incubated for 30 minutes. After 30 minutes at room temperature, 40 μl of the mixture was transferred to a 384-well plate with a non-transparent white bottom, the luminescence chemiluminescence value was read, and the cells proliferation inhibition rate IR (%)=(RLU control-RLU compound)/(RLU control-RLU blank)×100% was calculated, XLFit four-parameter method was used to fit the compound's gradient dilution concentration and the corresponding cell proliferation inhibition rate, and the IC50 value was calculate.

[5] = Homo sapiens, MIA PaCa-2, 120 h

Row | SMILES | IC50 [1] | IC50 ([2]; Homo sapiens, A549, 120 h) | IC50 [3] | IC50 [2] | IC50 ([1]; Homo sapiens, MIA PaCa-2, 2 h) | IC50 ([3]; Homo sapiens, NCI-H358, 120 h) | IC50 [4] | IC50 [4, 5]
1 | C=CC(=O)N1CCN2c3nc(=O)n(-c4c(C)ncnc4C(C)C)c4nc(-c5c(O)cccc5F)c(Cl)c(c34)OC[C@H]2C1 (single isomer, unassigned) [Compound Z88-1] | 356 nM | > 10000 nM | 100 nM | – | – | – | – | –
2 | C=CC(=O)N1CCN2c3nc(=O)n(-c4c(C)ccnc4C(C)C)c4nc(-c5ccccc5F)c(Cl)c(c34)OC[C@H]2C1 (single isomer, unassigned) [Compound Z87-1] | 158 nM | 10200 nM | 47 nM | – | – | – | – | –
3 | C=CC(=O)N1CCN2c3nc(=O)n(-c4c(C)ccnc4C(C)C)c4nc(-c5c(O)cccc5F)c(Cl)c(c34)OC[C@@H]2C1 (single isomer, unassigned) [Compound Z24-1] | 53 nM | – | 16 nM | > 10000 nM | – | – | – | –
4 | C=CC(=O)N1CCN2c3nc(=O)n(-c4nccnc4C(C)C)c4nc(-c5ccccc5F)c(Cl)c(c34)OC[C@H]2C1 (atropisomer, axis not shown) [Compound Z104-2] | 185 nM | – | 28 nM | > 10000 nM | – | – | – | –
5 | C=CC(=O)N1CCN2c3nc(=O)n(-c4nccnc4C(C)C)c4nc(-c5c(O)cccc5F)c(F)c(c34)OC[C@H]2C1 (atropisomer, axis not shown) [Compound Z107-1] | 226 nM | > 30000 nM | 19 nM | – | – | – | – | –
6 | C=CC(=O)N1CCN2c3nc(=O)n(-c4c(C)ccnc4C(C)C)c4nc(-c5cccc(Cl)c5F)c(Cl)c(c34)OC[C@H]2C1 [Compound Z91] | 16 nM | – | 2 nM | 4220 nM | – | – | – | –
7 | C=CC(=O)N1CCN2c3nc(=O)n(-c4c(C)ccnc4C(C)C)c4nc(-c5c(F)cccc5OC)c(Cl)c(c34)OC[C@H]2C1 [Compound Z75] | – | > 10000 nM | – | – | 112 nM | 2 nM | – | –
8 | C=CC(=O)N1CCN2c3nc(=O)n(-c4c(C)ccnc4C(C)C)c4nc(-c5c(F)cccc5F)c(Cl)c(c34)OC[C@H]2C1 [Compound Z80] | – | > 10000 nM | – | – | 19 nM | 3 nM | – | –
9 | C=CC(=O)N1CCN2c3nc(=O)n(-c4c(C)ncnc4C(C)C)c4nc(-c5c(O)cccc5F)c(Cl)c(c34)OC[C@H]2C1 (single isomer, unassigned) [Compound Z88-2] | 27 nM | – | 3 nM | > 10000 nM | – | – | – | –
10 | C=CC(=O)N1CCN2c3nc(=O)n(-c4c(C)ccnc4C(C)C)c4nc(-c5cccc(F)c5F)c(Cl)c(c34)OC[C@H]2C1 (single isomer, unassigned) [Compound Z77-1] | 58 nM | > 10000 nM | 26 nM | – | – | – | – | –
11 | C=CC(=O)N1CCN2c3nc(=O)n(-c4c(C)ccnc4C(C)C)c4cc(-c5c(O)cccc5F)cc(c34)OC[C@@H]2C1 (atropisomer, axis not shown) [Compound Z15-2] | – | – | 149 nM | 29800 nM | – | – | 261 nM | –
12 | C=CC(=O)N1CCN2c3nc(=O)n(-c4c(C)ccnc4C(C)C)c4cc(-c5c(O)cccc5F)c(Cl)c(c34)OC[C@H]2C1 (single isomer, unassigned) [Compound Z29-1] | – | – | 3 nM | > 10000 nM | – | – | 8 nM | –
13 | C=CC(=O)N1CCN2c3nc(=O)n(-c4c(C)ccnc4C(C)C)c4cc(-c5c(O)cccc5F)c(Cl)c(c34)OC[C@H]2C1 (single isomer, unassigned) [Compound Z29-4] | – | – | 44 nM | > 10000 nM | – | – | 358 nM | –
14 | C=CC(=O)N1CCN2c3nc(=O)n(-c4ccccc4C(C)C)c4cc(-c5c(C)ccc6[nH]ncc56)c(Cl)c(c34)OC[C@@H]2C1 (single isomer, unassigned) [Compound Z20-2] | – | – | 46 nM | 5950 nM | – | – | 173 nM | –
15 | C=CC(=O)N1CCN2c3nc(=O)n(-c4c(C)ncnc4C4CC4)c4nc(-c5c(O)cccc5F)c(Cl)c(c34)OC[C@H]2C1 [Compound Z103] | – | > 30000 nM | – | – | – | 7 nM | – | 18 nM
16 | C=CC(=O)N1CCN2c3nc(=O)n(-c4c(C)ccnc4C(C)C)c4cc(-c5c(O)cccc5F)cc(c34)OC[C@@H]2C1 (single isomer, unassigned) [Compound Z15-1] | – | – | 17 nM | 22200 nM | – | – | 20 nM | –
17 | C=CC(=O)N1CCN2c3nc(=O)n(-c4c(C)ccnc4C(C)C)c4nc(-c5cccc(F)c5F)c(Cl)c(c34)OC[C@@H]2C1 [Compound Z47] | – | > 10000 nM | 3 nM | – | – | – | 9 nM | –
18 | C=CC(=O)N1CCN2c3nc(=O)n(-c4c(C)ccnc4C(C)C)c4nc(-c5cccc(C(F)(F)F)c5F)c(Cl)c(c34)OC[C@@H]2C1 [Compound Z57] | – | > 10000 nM | 5 nM | – | – | – | – | 22 nM
19 | C=CC(=O)N1CCN2c3nc(=O)n(-c4c(C)ccnc4C(C)C)c4cc(-c5cccnc5N)c(Cl)c(c34)OC[C@H]2C1 [Compound Z41] | – | > 10000 nM | – | – | – | 318 nM | – | 344 nM
20 | C=CC(=O)N1CCN2c3nc(=O)n(-c4c(C)ccnc4C(C)C)c4nc(-c5c(O)cccc5F)c(Cl)c(c34)OC[C@@H]2C1 [Compound Z24, (5 aS)-7-acryloyl-3-chloro-2-(2-fluoro-6-hydroxyphenyl)-12-(2-isopropyl-4-methylpyridin-3-yl)-5,5a,6,7,8,9-hexahydro-4-oxo-1,7,9a,10,12-pentazabenzo[4,5] cyclohepta[1,2,3-de]naphthalen-11 (12H)-one] | – | 10400 nM | 8 nM | – | – | – | – | 9 nM
21 | C=CC(=O)N1CCN2c3nc(=O)n(-c4c(C)ccnc4C(C)C)c4cc(-c5c(C)ccc6[nH]ncc56)c(Cl)c(c34)OC[C@@H]2C1 (single isomer, unassigned) [Compound Z26-2] | – | – | 1 nM | > 10000 nM | – | – | 4 nM | –
22 | C=CC(=O)N1CCN2c3nc(=O)n(-c4c(C)ncnc4C4CC4)c4nc(-c5cccc(F)c5F)c(Cl)c(c34)OC[C@H]2C1 [Compound Z106] | – | > 30000 nM | – | – | – | 4 nM | – | 7 nM
23 | C=CC(=O)N1CCN2c3nc(=O)n(-c4c(C)ccnc4C(C)C)c4cc(-c5c(C)ccc6[nH]ncc56)c(Cl)c(c34)OC[C@H]2C1 (single isomer, unassigned) [Compound Z30-2] | – | – | 2 nM | 20700 nM | – | – | 5 nM | –
24 | C=CC(=O)N1CCN2c3nc(=O)n(-c4ccccc4C(C)C)c4cc(-c5c(C)ccc6[nH]ncc56)c(Cl)c(c34)OC[C@@H]2C1 (single isomer, unassigned) [Compound Z20-4] | – | – | 26 nM | 2670 nM | – | – | 51 nM | –
25 | C=CC(=O)N1CCN2c3nc(=O)n(-c4c(C)ccnc4C(C)C)c4nc(-c5ccccc5OC(F)(F)F)c(Cl)c(c34)OC[C@@H]2C1 [Compound Z64] | – | > 10000 nM | – | – | – | 7 nM | – | 9 nM
